Test results taken from US7465814B2, “Sulfonate compound and fluorescent probe using the same” (priority 2003, dated 2008).
Like-named read-outs stand apart in the source and are kept apart here.

Key:
[1] = Tracking fluorescence with enzymatically produced superoxide (FIG. 1a-c); assay type: biochemical
Source text: This figure is a graph showing results that are obtained by tracking fluorescence by allowing the compound 1d to react with H2O2 or superoxide produced enzymatically, a horizontal axis thereof represents a reaction time (second), and a vertical axis thereof represents a fluorescence intensity (au). In the figure, (a) represents a result obtained by a reaction in the presence of HPX and XO, (b) represents a result obtained by a reaction in the presence of HPX, XO and SOD, (c) represents a result obtained by a reaction under an anaerobic condition in the presence of HPX, XO and SOD, and (d) represents a result obtained by a reaction with only H2O2. The test results shown in FIG. 1 will be described below in further detail.
More specifically, the enzyme reaction of the compound 1d (16 μM), xanthine oxidase (XO, 0.01 U/mL) and hypoxanthine (HPX, 40 μM) at 37° C. in a HEPES buffer solution (pH 7.4, 10 mM, 2.5 mL) was tracked at an excitation wavelength of 511 nm and an emission wavelength of 531 nm, then a fluorescent response caused by the formation of the compound 2d (above Scheme 4) was observed, and a progressive curve shown in FIG. 1(a) was obtained.
A specific description thereof will be provided below. NBT has a property of being reduced by superoxide O^2−•, and thus is used for a probe for spectrophotometric measurement and the like. However, NBT has a serious problem of being reduced not only by superoxide but also by reductase that exists in a biosystem.

neutrophils = details: for cell viability after the incubation with respect to before the incubation: 37° C., 120 minutes
Protocol: Moreover, a toxicity of the compound 1d with respect to the neutrophils was evaluated by estimating cell viability by a trypan blue dyeing method. More specifically, the neutrophils (1.0×10^5 cells) were incubated at 37° C. for 120 minutes in a glass test tube coated with human serum albumin, in the presence of both of the compound 1d (6.25 μM) and PMA (0.16 μM), in the presence of either of them, and in the absence of them, respectively. Then, cell viability after the incubation with respect to cell viability before the incubation was measured.

O=C1OC2(c3ccccc31)c1cc(F)c(OS(=O)(=O)c3ccc([N+](=O)[O-])cc3[N+](=O)[O-])c(F)c1Oc1c2cc(F)c(OS(=O)(=O)c2ccc([N+](=O)[O-])cc2[N+](=O)[O-])c1F [Compound 1d]
fluorescence response with HPX and XO, FIG. 1(a) ([1]; 1d 16 μM, XO 0.01 U/mL, HPX 40 μM, 37° C., HEPES pH 7.4, ex 511 nm, em 531 nm): increase a fluorescence response significantly in a short period of time
production of 2d from 1d caused by XO reductant, FIG. 1(c) ([1]; HPX, XO and SOD under the anaerobic condition): proceeded at a very low speed
fluorescence response with HPX, XO and SOD, FIG. 1(b) ([1]; as FIG. 1(a) plus SOD 40 U/mL): inhibited significantly
cell viability after the incubation with respect to before the incubation (neutrophils; in the presence of both 1d (6.25 μM) and PMA (0.16 μM)): 97%
toxicity with respect to the neutrophils (neutrophils; incubation of 120 minutes): did not show any significant toxicity
cell viability after the incubation with respect to before the incubation (neutrophils; substance only (1d 6.25 μM or PMA 0.16 μM), 1.0×10^5 neutrophils): 95%
